Assay [1] concerns the target T1, Mas-related G-protein coupled receptor member X2 (Homo sapiens, UniProt Q96LB1).
T1 sequence (Q96LB1 whole entry): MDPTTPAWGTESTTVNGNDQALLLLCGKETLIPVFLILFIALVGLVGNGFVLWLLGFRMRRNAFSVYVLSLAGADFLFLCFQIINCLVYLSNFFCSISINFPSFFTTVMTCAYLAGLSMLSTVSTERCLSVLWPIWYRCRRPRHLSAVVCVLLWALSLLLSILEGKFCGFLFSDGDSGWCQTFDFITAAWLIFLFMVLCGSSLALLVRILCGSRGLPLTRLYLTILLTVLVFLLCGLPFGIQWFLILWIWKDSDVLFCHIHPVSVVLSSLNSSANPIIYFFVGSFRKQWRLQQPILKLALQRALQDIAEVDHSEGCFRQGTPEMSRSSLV
Nature of the assay: Intracellular Calcium Mobilization Assay. The conditions noted are these: pH 7.4; 30 °C. The procedure:
MRGPRX2 stable cells were maintained in DMEM containing 10% FBS, 100 μg/ml hygromycin B, and 15 μg/ml blasticidin. For the calcium mobilization assay, cells were plated into glass bottomed, poly-L-lysine coated, black 384 well plates at a density of 20,000 cells/well in medium containing 1% dialyzed FBS, 1 μg/ml tetracycline, 100 IU/ml penicillin and 100 μg/ml streptomycin and incubated 24 h. Following tetracycline induction, medium was removed and cells were loaded with 20 μl/well of 1× FLIPR Calcium dye (Molecular Devices) and 2.5 mM probenic acid, for 1 h in a humidified environment at 37 °C with 5% CO2. For mast cell calcium experiments, cells were seeded at a density of 50,000 cells/well in Tyrode's buffer containing 1× calcium dye and incubated for 1 h before treatment and analysis. After dye loading, baseline was measured for 10 s before drug treatment, and then cells were treated with 10 μl of 3× concentrated drug in drug buffer (1× HBSS with 20 mM HEPES and 2.5 mM probenic acid, pH 7.4) in 16 point concentration response curves from 100 μM to 0.003 nM.

For assay [2], the target named is T1, Mas-related G-protein coupled receptor member X2. In words: PRESTO-Tango Assay. The conditions noted are these: pH 7.4; 30 °C. The procedure: HTLA cells (HEK-T cells stably expressing a β-arrestin2-TEV fusion protein and a tTa-dependent luciferase reporter) were maintained in DMEM (Corning) containing 10% FBS, 2 μg/ml puromycin and 100 μg/ml hygromycin B in a humidified atmosphere at 37 °C with 5% CO2. In brief, cells were plated to 50% confluency and transfected with a codon-optimized MRGPRX-Tango construct using the calcium phosphate method53. The next day, transfected cells were transferred to glass-bottomed, poly-L-lysine-coated white 384-well plates at a density of 20,000 cells/well. The following day, cells were treated with 10 μM concentrations of small molecules (in quadruplicate) diluted in drug buffer (1× HBSS with 20 mM HEPES and 0.3% bovine serum albumin, pH 7.4) and incubated for 18-24 h. After drug incubation, medium was removed and 20 μl of Bright-Glo (Promega; diluted 20-fold) was added to each well and incubated 15 min at room temperature.

The EC50 is the concentration needed to bring the measured effect to its halfway point. On to `C[C@@H]1[C@@H]2Cc3ccc(O)cc3[C@@]1(C)CCN2C` [(+)-Metazocine], for which the EC50 in assay [1] was determined as 9.3 µM; in assay [2], 7.2 µM.
Regarding `CN1CC[C@]23CCCC[C@@H]2[C@H]1Cc1ccc(O)cc13` [Dextrorphan], the EC50 in assay [1] stood at 3.9 µM; in assay [2], 4.2 µM.
As for `CC(=O)O[C@H]1C=C[C@H]2[C@H]3Cc4ccc(O)c5c4[C@@]2(CCN3C)[C@H]1O5` [6-Acetylmorphine], the values for the EC50 in assay [1] and in assay [2] were 21 µM and 12 µM, respectively.
The like results for `COc1ccc2c(c1)[C@@]13CCCC[C@@H]1[C@@H](C2)N(C)CC3` [Dextromethorphan] were, in that order, 5.9 µM and 3.2 µM.
The matching figures for `CC[C@H](C)[C@H](NC(=O)[C@H](CCCNC(=N)N)NC(=O)[C@H](CCCNC(=N)N)NC(=O)[C@H](CC(C)C)NC(=O)[C@H](Cc1ccccc1)NC(=O)CNC(=O)CNC(=O)[C@@H](N)Cc1ccc(O)cc1)C(=O)N[C@@H](CCCNC(=N)N)C(=O)N1CCC[C@H]1C(=O)N[C@@H](CCCCN)C(=O)N[C@@H](CC(C)C)C(=O)N[C@@H](CCCCN)C(=O)N[C@@H](Cc1c[nH]c2ccccc12)C(=O)N[C@@H](CC(=O)O)C(=O)N[C@@H](CC(N)=O)C(=O)N[C@@H](CCC(N)=O)C(=O)O` [Dynorphin A (1-17)]: 2.3 µM and 21 µM.
`CCC(=O)O[C@](Cc1ccccc1)(c1ccccc1)[C@H](C)CN(C)C` [PROPOXYPHENE]: the EC50 in assay [1] was found to be 32 µM; in assay [2] it was 15 µM.
The like results for `COc1ccc2c3c1O[C@H]1[C@@H](OC(C)=O)C=C[C@H]4[C@@H](C2)N(C)CC[C@@]341` [6-Acetylcodeine] were, in that order, 25 µM and 19 µM.
The matching figures for `CN1CC[C@@]2(c3cccc(O)c3)Cc3nc4ccccc4cc3C[C@@H]2C1` [(+)-TAN-67]: 0.29 µM and 0.43 µM.
The like results for `CN1CC[C@@]23CCCC[C@H]2[C@@H]1Cc1ccc(O)cc13` [Levorphanol] were, in that order, 13 µM and 22 µM.
`C[C@@H]1C2Cc3ccc(O)cc3[C@]1(C)CCN2` [(6R,11S)-6,11-Dimethyl-1,2,3,4,5,6-hexahydro-2,6-methano-benzo[d]azocin-8-ol]: a half-maximal response in assay [2] (EC50) required 50 µM.
On to `COC1=CC=C2[C@H]3Cc4ccc(OC)c5c4[C@@]2(CCN3C)[C@H]1O5` [Thebaine], for which the figures for the EC50 in assay [1] and in assay [2] were 76 µM and 11 µM, respectively.
As to `CC(C)C[C@H](NC(=O)[C@H](Cc1ccccc1)NC(=O)CNC(=O)CNC(=O)[C@@H](N)Cc1ccc(O)cc1)C(=O)N[C@@H](CCCNC(=N)N)C(=O)N[C@@H](CCCNC(=N)N)C(=O)N[C@@H](CCC(N)=O)C(=O)N[C@@H](Cc1ccccc1)C(=O)N[C@@H](CCCCN)C(=O)N[C@H](C(=O)N[C@H](C(=O)N[C@H](C(=O)O)[C@H](C)O)C(C)C)C(C)C` [Dynorphin B (1-13)], the EC50 in assay [1] came out at 6.5 µM; in assay [2], 33 µM.
In the case of `C[C@H]1C2Cc3ccc(O)cc3[C@@]1(C)CCN2` [(6S,11R)-6,11-Dimethyl-1,2,3,4,5,6-hexahydro-2,6-methano-benzo[d]azocin-8-ol], the concentration for a half-maximal effect (EC50) in assay [1] stood at 13 µM; in assay [2], 14 µM.

The record behind these values is BindingDB's records for doi:10.1038/nchembio.2334 (University of North Carolina, 2017).
